Measurements reported in patent EP0084677A1, “New compound having mucoregulating and fluidifying activity, process for its production and relative pharmaceutical compositions” (priority 1982, dated 1983).

Assays:
[1] = tested on: Swiss mouse; assay: Acute toxicity (Litchfield and Wilcoxon method), mouse; type: in vivo
Description: (§1) The acute toxicity has been determined in Swiss mouse and in Wistar rat for different administra tion routes, according to the method of Litch- field J.T. and Wilcoxon LJ. Pharm. Exp. Therap. 96, 99-113 (1949)]. The results obtained are reported in the following Table I; from the same it can be pointed out how AFP 736 is endowed with a very low acute toxicity.

[2] = tested on: Wistar rat; assay: Acute toxicity (Litchfield and Wilcoxon method), rat; type: in vivo
Description: as §1

[3] = tested on: male Wistar rat; assay: Bronchosecretogogue activity (method of Mawatari); type: in vivo; conditions: 500 mg/kg/os, FlNa = Sodium fluoresceine
[4] = tested on: male rabbit; assay: Mucosecretolytic activity (technique of Giraldez et al.); type: in vivo; conditions: 500 mg/kg/os
[5] = tested on: tracheo-bronchial mucus from rabbit; assay: Fluidifying activity "in vivo" (microviscosimeter on tracheo-bronchial mucus); conditions: 500 mg/kg/os

Compound	LD50 ([1]; i.p.)	LD50 ([1]; os)	LD50 ([2]; i.p.)	LD50 ([2]; os)	% Increase of FlNa in comparison with controls [3]	% Increase of secretion in comparison with controls [4]	% Reduction of mucus viscosity [5]
5-[(2-metho xy-phenoxy) caxbonyloxy]- α,α, 4-trimethyl-3-cyclohexen-1-methanol [AFP 736]	1750 mg/kg	3100 mg/kg	2340 mg/kg	>4000 mg/kg	79.3%	45.5%	32.2%
NC(CSCC(=O)O)C(=O)O (centres unmarked) [Carboxy-methylcysteine, carboxymethylcysteine]	–	–	–	–	39.7%	40.2%	–
COc1ccccc1O [Guaiacol, 2-methoxyphenol]	–	–	–	–	–	–	4.1%
COc1ccccc1OCC(O)CO (centres unmarked) [Guaiphe-nesine, guaiphenesin]	–	–	–	–	12.6%	–	–
CC1=CCC(C(C)(C)O)CC1O (centres unmarked) [Sobrerol, 2-methyl-5-(1-hydroxy-1-methyl-ethyl)-2-cyclohexen-1-ol]	–	–	–	–	33.4%	36.8%	15.6%
